Earlier results, collected in patent US20230078230A1, “METHODS FOR THE PRODUCTION OF COMMITTED CARDIAC PROGENITOR CELLS” (FUJIFILM Cellular Dynamics, Inc., priority 2021, published 2023).

How the values were obtained:
ROCK1/ROCK2 = conditions: ROCK1/ROCK2, competing with ATP
[1] = tested on: pluripotent stem cell-derived cardiomyocytes

IC50 (ROCK1/ROCK2) [µM]	Structure (SMILES)	effect on contractile activity [1]
0.8	C[C@@H](N)[C@H]1CC[C@H](C(=O)Nc2ccncc2)CC1 [Y-27632]	–
–	CC(C)NCC(O)c1ccc(O)c(O)c1 (stereo not shown) [isoprenaline]	positive chronotropic effect
–	COc1ccc([C@@H]2Sc3ccccc3N(CCN(C)C)C(=O)[C@@H]2OC(C)=O)cc1 [diltiazem]	inhibits contractile activity in a dose-dependent manner
–	CNC[C@H](O)c1cccc(O)c1 [phenylephrine]	positive chronotropic effect
